Reference: US20240270762A1, “PENICILLIN-BINDING PROTEIN INHIBITORS” (priority 2021, published 2024)

Key:
[1] = target: T1, PBP3 from Escherichia coli (K-12) (Escherichia coli, UniProt P0AD68); assay: Bocillin-FL fluorescence polarization competition binding, E. coli PBP3
T1 construct: made in house
Method in brief: (§1)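 Purified PBP was preincubated with inhibitor (E. coli PBP3 1.5 μM, 30 min; P. aeruginosa PBP3 0.75 μM, A. baumannii PBP3 0.2 μM and PBP1a 1 μM, 15 min), then Bocillin-FL (0.1 μM; 0.05 μM for PBP1a) added and FP read up to 60 min. EC50 = 50% loss of bound probe.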

[2] = target: T2, PBP3 from Acinetobacter baumannii (ATCC 19606) (Acinetobacter baumannii, UniProt A0ABX6CK25); assay: Bocillin-FL fluorescence polarization competition binding, A. baumannii PBP3; settings: fluorescence polarization competition binding assay using Bocillin-FL; read-out: A. baumannii PBP3 Potency
T2 sequence (A0ABX6CK25 64-610): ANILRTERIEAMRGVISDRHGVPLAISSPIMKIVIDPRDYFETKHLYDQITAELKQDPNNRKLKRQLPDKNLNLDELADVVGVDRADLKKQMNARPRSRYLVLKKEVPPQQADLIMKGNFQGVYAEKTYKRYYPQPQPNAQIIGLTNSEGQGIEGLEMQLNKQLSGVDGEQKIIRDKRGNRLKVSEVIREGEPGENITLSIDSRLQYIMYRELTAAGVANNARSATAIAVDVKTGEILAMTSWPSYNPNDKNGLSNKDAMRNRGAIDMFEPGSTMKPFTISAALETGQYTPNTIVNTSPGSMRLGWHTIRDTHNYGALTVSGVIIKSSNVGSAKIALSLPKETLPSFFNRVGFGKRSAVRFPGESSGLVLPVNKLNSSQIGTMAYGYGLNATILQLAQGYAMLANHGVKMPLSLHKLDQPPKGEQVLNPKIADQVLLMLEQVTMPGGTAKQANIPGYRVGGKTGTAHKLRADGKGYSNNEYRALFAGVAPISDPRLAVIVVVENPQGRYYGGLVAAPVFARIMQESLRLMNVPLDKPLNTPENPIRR
Method in brief: as §1

T1 sequence (P0AD68 1-577): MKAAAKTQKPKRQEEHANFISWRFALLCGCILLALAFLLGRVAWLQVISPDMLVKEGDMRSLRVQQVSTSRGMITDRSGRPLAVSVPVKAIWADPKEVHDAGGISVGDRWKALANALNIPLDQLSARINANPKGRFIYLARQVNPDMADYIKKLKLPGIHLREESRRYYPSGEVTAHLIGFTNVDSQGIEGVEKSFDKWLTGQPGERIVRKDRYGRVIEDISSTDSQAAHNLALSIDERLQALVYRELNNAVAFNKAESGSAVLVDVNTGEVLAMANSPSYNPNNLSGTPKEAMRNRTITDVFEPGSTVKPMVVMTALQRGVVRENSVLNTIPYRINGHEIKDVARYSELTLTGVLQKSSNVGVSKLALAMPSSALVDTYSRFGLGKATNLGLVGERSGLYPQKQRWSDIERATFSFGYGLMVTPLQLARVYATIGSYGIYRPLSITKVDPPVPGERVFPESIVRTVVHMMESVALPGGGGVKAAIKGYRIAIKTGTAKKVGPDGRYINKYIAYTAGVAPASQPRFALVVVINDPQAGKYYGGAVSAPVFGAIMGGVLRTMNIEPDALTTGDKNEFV

Compound	EC50 [1] [µM]	IC50 [2] [µM]
CN(CCCN1CCN(C(=O)NC(C(=O)N[C@H]2Cc3ccc(F)c(C(=O)O)c3OB2O)c2cc(F)c(O)c(O)c2Cl)C(=O)C1=O)C(=O)c1cccc(O)c1 (stereo partly drawn) [Example 310, (3R)-3-(2-(2-chloro-5-fluoro-3,4-dihydroxyphenyl)-2-(4-(3-(3-hydroxy-N-methylbenzamido)propyl)-2,3-dioxopiperazine-1-carboxamido)acetamido)-7-fluoro-2-hydroxy-3,4-dihydro-2H-benzo[e][1,2]oxaborinine-8-carboxylic acid]	< 10	< 10
O=C(NCCCN1CCN(C(=O)NC(C(=O)N[C@H]2Cc3ccc(F)c(C(=O)O)c3OB2O)c2cc(F)c(O)c(O)c2Cl)C(=O)C1=O)c1ccnc(F)c1 (stereo partly drawn) [Example 466, (3R)-3-(2-(2-chloro-5-fluoro-3,4-dihydroxyphenyl)-2-(4-(3-(2-fluoroisonicotinamido)propyl)-2,3-dioxopiperazine-1-carboxamido)acetamido)-7-fluoro-2-hydroxy-3,4-dihydro-2H-benzo[e][1,2]oxaborinine-8-carboxylic acid]	< 10	< 10
O=C(NCCCN1CCN(C(=O)NC(C(=O)N[C@H]2Cc3ccc(F)c(C(=O)O)c3OB2O)c2cc(F)c(O)c(O)c2Cl)C(=O)C1=O)c1cc(F)c(F)c(O)c1F (stereo partly drawn) [Example 404, (3R)-3-(2-(2-chloro-5-fluoro-3,4-dihydroxyphenyl)-2-(2,3-dioxo-4-(3-(2,4,5-trifluoro-3-hydroxybenzamido)propyl)piperazine-1-carboxamido)acetamido)-7-fluoro-2-hydroxy-3,4-dihydro-2H-benzo[e][1,2]oxaborinine-8-carboxylic acid]	< 10	< 10
O=C(NCCCN1CCN(C(=O)N[C@H](C(=O)N[C@H]2Cc3ccc(F)c(C(=O)O)c3OB2O)c2cc(F)c(O)c(O)c2Cl)C(=O)C1=O)c1ccc(O)cc1Cl (single isomer, unassigned) [Example 470]	50 to 250	10 to 50
O=C(NCCCN1CCN(C(=O)NC(C(=O)N[C@H]2Cc3ccc(F)c(C(=O)O)c3OB2O)c2cc(F)c(O)c(O)c2Cl)C(=O)C1=O)c1c(F)cc(O)cc1Cl (stereo partly drawn) [Example 421, (3R)-3-(2-(2-chloro-5-fluoro-3,4-dihydroxyphenyl)-2-(4-(3-(2-chloro-6-fluoro-4-hydroxybenzamido)propyl)-2,3-dioxopiperazine-1-carboxamido)acetamido)-7-fluoro-2-hydroxy-3,4-dihydro-2H-benzo[e][1,2]oxaborinine-8-carboxylic acid]	< 10	< 10
O=C(NCCCN1CCN(C(=O)NC(C(=O)N[C@H]2Cc3ccc(F)c(C(=O)O)c3OB2O)c2cc(F)c(O)c(O)c2Cl)C(=O)C1=O)c1c(F)ccc(O)c1F (stereo partly drawn) [Example 413, (3R)-3-(2-(2-chloro-5-fluoro-3,4-dihydroxyphenyl)-2-(4-(3-(2,6-difluoro-3-hydroxybenzamido)propyl)-2,3-dioxopiperazine-1-carboxamido)acetamido)-7-fluoro-2-hydroxy-3,4-dihydro-2H-benzo[e][1,2]oxaborinine-8-carboxylic acid]	< 10	< 10
O=C(NCCCN1CCN(C(=O)NC(C(=O)N[C@H]2Cc3ccc(F)c(C(=O)O)c3OB2O)c2cc(F)c(O)c(O)c2Cl)C(=O)C1=O)c1cc(O)ccc1F (stereo partly drawn) [Example 407, (3R)-3-(2-(2-chloro-5-fluoro-3,4-dihydroxyphenyl)-2-(4-(3-(2-fluoro-5-hydroxybenzamido)propyl)-2,3-dioxopiperazine-1-carboxamido)acetamido)-7-fluoro-2-hydroxy-3,4-dihydro-2H-benzo[e][1,2]oxaborinine-8-carboxylic acid]	< 10	< 10
O=C(NCCCN1CCN(C(=O)NC(C(=O)N[C@H]2Cc3ccc(F)c(C(=O)O)c3OB2O)c2cc(F)c(O)c(O)c2Cl)C(=O)C1=O)c1c(F)cncc1Cl (stereo partly drawn) [Example 403, (3R)-3-(2-(2-chloro-5-fluoro-3,4-dihydroxyphenyl)-2-(4-(3-(3-chloro-5-fluoroisonicotinamido)propyl)-2,3-dioxopiperazine-1-carboxamido)acetamido)-7-fluoro-2-hydroxy-3,4-dihydro-2H-benzo[e][1,2]oxaborinine-8-carboxylic acid]	< 10	< 10
O=C(NCCCN1CCN(C(=O)NC(C(=O)N[C@H]2Cc3ccc(F)c(C(=O)O)c3OB2O)c2cc(F)c(O)c(O)c2Cl)C(=O)C1=O)c1cc(O)cc(O)c1 (stereo partly drawn) [Example 423, (3R)-3-(2-(2-chloro-5-fluoro-3,4-dihydroxyphenyl)-2-(4-(3-(3,5-dihydroxybenzamido)propyl)-2,3-dioxopiperazine-1-carboxamido)acetamido)-7-fluoro-2-hydroxy-3,4-dihydro-2H-benzo[e][1,2]oxaborinine-8-carboxylic acid]	< 10	< 10
O=C(NCCCN1CCN(C(=O)NC(C(=O)N[C@H]2Cc3ccc(F)c(C(=O)O)c3OB2O)c2cc(F)c(O)c(O)c2Cl)C(=O)C1=O)c1cc(O)ccc1Cl (stereo partly drawn) [Example 408, (3R)-3-(2-(2-chloro-5-fluoro-3,4-dihydroxyphenyl)-2-(4-(3-(2-chloro-5-hydroxybenzamido)propyl)-2,3-dioxopiperazine-1-carboxamido)acetamido)-7-fluoro-2-hydroxy-3,4-dihydro-2H-benzo[e][1,2]oxaborinine-8-carboxylic acid]	< 10	< 10
O=C(O)c1c(F)ccc2c1OB(O)[C@@H](NC(=O)C(NC(=O)N1CCN(C3CCN(C(=O)c4ccc(O)cc4)CC3)C(=O)C1=O)c1cc(F)c(O)c(O)c1Cl)C2 (stereo partly drawn) [Example 427, (3R)-3-(2-(2-chloro-5-fluoro-3,4-dihydroxyphenyl)-2-(4-(1-(4-hydroxybenzoyl)piperidin-4-yl)-2,3-dioxopiperazine-1-carboxamido)acetamido)-7-fluoro-2-hydroxy-3,4-dihydro-2H-benzo[e][1,2]oxaborinine-8-carboxylic acid]	< 10	< 10
O=C(NCCCN1CCN(C(=O)NC(C(=O)N[C@H]2Cc3ccc(F)c(C(=O)O)c3OB2O)c2cc(F)c(O)c(O)c2Cl)C(=O)C1=O)c1cc(F)ncc1F (mixture of isomers) [Example 405]	< 10	< 10
O=C(O)c1c(F)ccc2c1OB(O)[C@@H](NC(=O)C(NC(=O)N1CCN(C3CCN(C(=O)Nc4cccc(O)c4)CC3)C(=O)C1=O)c1cc(F)c(O)c(O)c1Cl)C2 (stereo partly drawn) [Example 424, (3R)-3-(2-(2-chloro-5-fluoro-3,4-dihydroxyphenyl)-2-(4-(1-((3-hydroxyphenyl)carbamoyl)piperidin-4-yl)-2,3-dioxopiperazine-1-carboxamido)acetamido)-7-fluoro-2-hydroxy-3,4-dihydro-2H-benzo[e][1,2]oxaborinine-8-carboxylic acid]	< 10	< 10
O=C(O)c1c(F)ccc2c1OB(O)[C@@H](NC(=O)C(NC(=O)N1CCN(C3CCN(S(=O)(=O)c4cccc(O)c4)CC3)C(=O)C1=O)c1cc(F)c(O)c(O)c1Cl)C2 (stereo partly drawn) [Example 428, (3R)-3-(2-(2-chloro-5-fluoro-3,4-dihydroxyphenyl)-2-(4-(1-((3-hydroxyphenyl)sulfonyl)piperidin-4-yl)-2,3-dioxopiperazine-1-carboxamido)acetamido)-7-fluoro-2-hydroxy-3,4-dihydro-2H-benzo[e][1,2]oxaborinine-8-carboxylic acid]	< 10	< 10
